In ChEMBL document CHEMBL1130157 (J Med Chem, 1997):

Tests used:
Translocator protein = Translocator protein (Rattus norvegicus, UniProt P16257); assay: Displacement of Ro 5-4864 from peripheral (renal cell) Benzodiazepine receptor
[1] = molecular target: GABA-A receptor; anion channel (Rattus norvegicus) (UniProt O09028+P15431+P18506+P18508+P19969+P20236+P23574+P23576+P28471+P28473+P30191+P62813+P63079+P63138+Q91ZM7+Q9ES14); assay: Percentage inhibition of [3H]flunitrazepam binding to rat brain GABA-A benzodiazepine receptor at 40 uM
[2] = molecular target: GABA-A receptor; anion channel; assay: Displacement of [3H]flunitrazepam from rat brain GABA-A Benzodiazepine receptor
[3] = molecular target: T1, GABA A receptor alpha-2/beta-2/gamma-2 (Homo sapiens, UniProt P18507+P47869+P47870); assay: Potentiation of GABA-evoked Cl- currents in Xenopus oocytes expressing human alpha-2-beta-2-gamma-2 subunits; type: functional, cell-based, Oocyte
T1 sequence (P47870 whole entry): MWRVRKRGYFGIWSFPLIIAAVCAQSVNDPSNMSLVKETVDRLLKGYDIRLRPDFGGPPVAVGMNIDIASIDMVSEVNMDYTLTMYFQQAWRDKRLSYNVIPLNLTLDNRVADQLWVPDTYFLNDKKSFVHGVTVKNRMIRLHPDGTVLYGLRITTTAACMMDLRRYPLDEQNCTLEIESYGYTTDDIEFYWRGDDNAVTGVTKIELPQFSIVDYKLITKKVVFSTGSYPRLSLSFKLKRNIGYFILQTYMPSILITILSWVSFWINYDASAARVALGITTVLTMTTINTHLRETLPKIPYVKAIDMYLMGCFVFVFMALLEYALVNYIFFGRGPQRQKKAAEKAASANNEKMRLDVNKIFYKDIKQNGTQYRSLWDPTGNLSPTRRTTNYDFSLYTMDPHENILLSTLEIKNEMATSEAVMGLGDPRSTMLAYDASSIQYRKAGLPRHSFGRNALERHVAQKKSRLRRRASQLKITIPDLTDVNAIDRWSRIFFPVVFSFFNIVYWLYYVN
T1 sequence (P18507 whole entry): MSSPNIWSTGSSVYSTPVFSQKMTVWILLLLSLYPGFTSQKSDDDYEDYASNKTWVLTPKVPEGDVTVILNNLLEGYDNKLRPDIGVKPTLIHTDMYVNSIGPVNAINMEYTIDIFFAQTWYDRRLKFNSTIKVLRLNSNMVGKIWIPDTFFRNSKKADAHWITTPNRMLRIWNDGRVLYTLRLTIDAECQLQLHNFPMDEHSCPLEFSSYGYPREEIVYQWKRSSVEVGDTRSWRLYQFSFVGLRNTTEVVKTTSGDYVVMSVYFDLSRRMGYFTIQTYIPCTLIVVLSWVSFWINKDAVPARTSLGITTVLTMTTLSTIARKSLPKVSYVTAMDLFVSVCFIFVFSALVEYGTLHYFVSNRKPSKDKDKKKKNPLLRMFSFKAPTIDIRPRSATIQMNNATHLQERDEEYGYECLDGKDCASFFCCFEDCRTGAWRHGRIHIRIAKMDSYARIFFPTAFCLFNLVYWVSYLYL
T1 sequence (P47869 whole entry): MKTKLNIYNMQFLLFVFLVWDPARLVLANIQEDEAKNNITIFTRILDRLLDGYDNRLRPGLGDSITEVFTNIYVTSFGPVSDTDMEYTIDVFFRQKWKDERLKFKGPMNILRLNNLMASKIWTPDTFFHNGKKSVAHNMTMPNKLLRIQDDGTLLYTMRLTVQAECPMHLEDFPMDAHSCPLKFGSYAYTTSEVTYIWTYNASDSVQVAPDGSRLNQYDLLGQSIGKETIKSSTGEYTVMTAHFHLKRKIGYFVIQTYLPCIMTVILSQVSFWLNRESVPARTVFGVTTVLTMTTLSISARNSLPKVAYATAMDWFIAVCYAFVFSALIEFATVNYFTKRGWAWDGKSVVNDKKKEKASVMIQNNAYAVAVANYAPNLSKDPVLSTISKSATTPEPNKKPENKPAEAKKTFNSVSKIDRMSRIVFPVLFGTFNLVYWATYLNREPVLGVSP

[4] = molecular target: GABA A receptor alpha-2/beta-2/gamma-2 (Homo sapiens) (UniProt P47870+P18507+P47869); assay: Maximal potentiation of GABA-evoked Cl- currents in Xenopus oocytes expressing human alpha-2-beta-2-gamma-2 subunits; type: functional, cell-based; conditions: Oocyte

Sequence of Translocator protein (P16257 whole entry, looked up): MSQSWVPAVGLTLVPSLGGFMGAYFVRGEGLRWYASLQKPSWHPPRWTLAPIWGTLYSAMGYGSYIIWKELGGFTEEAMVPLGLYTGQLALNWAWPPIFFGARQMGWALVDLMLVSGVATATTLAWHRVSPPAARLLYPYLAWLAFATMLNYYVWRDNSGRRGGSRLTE

Row | SMILES | IC50 (Translocator protein) | inhibition [1] | IC50 [2] | EC50 [3] | Efficacy [4]
1 | CCCN(CCC)C(=O)Cc1c(-c2ccccc2)nc2c(Cl)cc(Cl)cn12 | 12 nM | 46% | – | – | –
2 | CCCN(CCC)C(=O)Cc1c(-c2ccccc2)nc2ccc(OC)cn12 | 33.6 nM | – | 2830 nM | – | –
3 | CCCN(CCC)C(=O)Cc1c(-c2ccc(Cl)cc2)nc2ccc(Cl)cn12 [ALPIDEM] | 7.9 nM | – | 26 nM | – | –
4 | CCCN(CCC)C(=O)Cc1c(-c2ccccc2)nc2c(C)cc(Br)cn12 | 13.5 nM | 68% | – | – | –
5 | CCCN(CCC)C(=O)Cc1c(-c2ccccc2)nc2ccc([N+](=O)[O-])cn12 | 11.8 nM | – | 2740 nM | – | –
6 | O=C(Cc1c(-c2ccc(Cl)cc2)nc2ccc(Cl)cn12)N1CCCC1 | 287 nM | – | 92 nM | 6600 nM | 71%
7 | O=C(c1c(-c2ccc(Cl)cc2)nc2ccc(Cl)cn12)N1CCCC1 | > 100000 nM | – | 2980 nM | – | –
8 | CCCN(CCC)C(=O)c1c(-c2ccc(Cl)cc2)nc2ccc(Cl)cn12 | 426 nM | – | – | – | –
9 | O=C(Cc1c(-c2ccc(Cl)cc2)nc2ccc(Cl)cn12)N1CCCCC1 | 18.7 nM | – | 240 nM | – | –
10 | CCCCOC(=O)Cc1c(-c2ccc(Cl)cc2)nc2ccc(Cl)cn12 | > 100000 nM | – | 2780 nM | – | –
11 | CCOC(=O)Cc1c(-c2ccccc2)nc2ccc(Cl)cn12 | > 100000 nM | – | 1170 nM | – | –
12 | CCCN(CCC)C(=O)Cc1c(-c2ccccc2)nc2ccc(I)cn12 | 23 nM | – | 286 nM | – | –
13 | CCCN(CCC)C(=O)Cc1c(-c2ccc(Cl)cc2)nc2c(Cl)cc(C(F)(F)F)cn12 | 37 nM | 0% | – | – | –
14 | CCOC(=O)CCc1c(-c2ccccc2)nc2ccc(Cl)cn12 | > 100000 nM | – | 1110 nM | – | –
15 | CCOC(=O)c1c(-c2ccc(C)cc2)nc2ccc(C)cn12 | > 100000 nM | – | 1150 nM | – | –
16 | CCCN(CCC)C(=O)Cc1c(-c2ccccc2)nc2ccc(Br)cn12 | 14.5 nM | – | 116 nM | – | –

Row | SMILES | IC50 (Translocator protein) | inhibition [1] | IC50 [2] | EC50 [3] | Efficacy [4]
17 | CCCCOC(=O)Cc1c(-c2ccccc2)nc2ccc(Cl)cn12 | > 100000 nM | – | 2500 nM | – | –
18 | CCOC(=O)Cc1c(-c2ccccc2)nc2ccc(C)cn12 | > 100000 nM | – | 1390 nM | – | –
19 | CCCN(CCC)C(=O)Cc1c(-c2ccccc2)nc2c(Br)cc(C)cn12 | 19 nM | 78% | – | – | –
20 | CCCN(CCC)C(=O)Cc1c(-c2ccccc2)nc2ccc(C)cn12 | 34.5 nM | – | 125 nM | – | –
21 | CCCCOC(=O)Cc1c(-c2ccccc2)nc2ccc(C)cn12 | > 100000 nM | – | 3150 nM | – | –
22 | Cc1ccc(-c2nc3ccc(C)cn3c2CC(=O)N(C)C)cc1 [ZOLPIDEM] | 4700 nM | – | – | – | 150%
23 | CCCN(CCC)C(=O)CCc1c(-c2ccccc2)nc2ccc(Cl)cn12 | 3270 nM | – | 308 nM | – | –
24 | CCOC(=O)c1c(-c2ccccc2)nc2ccc(Cl)cn12 | > 100000 nM | – | 2120 nM | – | –
25 | CCCN(CCC)C(=O)Cc1c(-c2ccccc2)nc2ccccn12 | 80 nM | – | 464 nM | – | –
26 | CCCN(CCC)C(=O)Cc1c(-c2ccc(Cl)cc2)nc2c(Cl)cc(Cl)cn12 [ALPDEM] | 20 nM | 0% | – | – | –
27 | CCOC(=O)Cc1c(-c2ccc(Cl)cc2)nc2ccc(Cl)cn12 | > 100000 nM | – | 695 nM | – | –
28 | CCCN(CCC)C(=O)Cc1c(-c2ccc(Cl)cc2)nc2c(Br)cc(Br)cn12 | 55.3 nM | 17% | – | – | –
29 | CCCN(CCC)C(=O)Cc1c(-c2ccc(Cl)cc2)nc2ccc(Br)cn12 | 12 nM | – | 58 nM | – | –
30 | CCN(CC)C(=O)c1c(-c2ccc(Cl)cc2)nc2ccc(Cl)cn12 | 2040 nM | – | 8380 nM | – | –
31 | CCCCOC(=O)CCc1c(-c2ccccc2)nc2ccc(Cl)cn12 | > 100000 nM | – | 1180 nM | – | –
32 | CCCN(CCC)C(=O)Cc1c(-c2ccccc2)nc2ccc(Cl)cn12 | 4 nM | – | 86 nM | 130 nM | 139%
